Experimental data taken from patent publication US8519163B2, “Anti-tumor activity of AECHL-1, novel triterpenoid isolated from Ailanthus excelsa in vitro and in vivo” (National Centre for Cell Science, priority 2008, dated 2013).

Tests used:
[1] = system: B16F10 mouse melanoma cells; experiment: Cell viability (MTT) and proliferation ([3H]thymidine) assay; format: cell-based; conditions: 12, 24 and 48 h, concentration and time dependent
Method: (§1) The cytotoxic effect of AECHL-1 on the HEK 293, B16F10, PC3, MCF 7 and MDA-MB-231 cells was measured by MTT assay as described in previous studies. The cells were dispensed in 96-well, flat bottom microtiter plates (Becton Dickinson Labware) at a density of 5×10^3 cells each well. […] MTT [3-(4,5-dimethylthiazol-2yl)-2,5-diphenyl tetrazolium bromide] solution (5 mg/ml in PBS) was added at the end of experiment to each well to a final concentration of 0.5 mg/ml, and the cultures were incubated for further 4 h. The resulting formazan crystals were dissolved in 100 μl dimethylsulfoxide (DMSO) and absorbance was measured in a microplate reader at 570 nm (Molecular Devices, Spectra MAX 250). The cytotoxic effect was expressed as a relative percentage of inhibition calculated as follows: Relative inhibition(%)=[(A570 control−A570 AECHL-1)A570 control]×100 Cell Proliferation Assay
(§2) Aliquots of complete medium containing 5×10^3 cells (B16F10, PC3, MDA-MB-231 and MCF-7 cells) were distributed into 96-well tissue culture plates. […] After 6 h incubation, 1 μCi [^3H]thymidine was added to each well. Cells were harvested after 24 and 48 hrs of treatment on a glass filter paper with a 96-well auto-harvester and the amount of incorporated [^3H]thymidine was determined with a β-counter (Canberra packard).

[2] = system: MCF-7 human breast cancer; experiment: as above; format: cell-based
Method: as §1, §2

[3] = system: MDA-MB-231 human breast carcinoma; experiment: as above; format: cell-based; conditions: 12, 24 and 48 h, concentration and time dependent
Method: as §1, §2

[4] = system: PC3 human prostate cancer cells; experiment: as above; format: cell-based; conditions: 12, 24 and 48 h, concentration and time dependent
Method: as §1, §2

[5] = system: cellular microtubule network; experiment: Immunocytochemistry, microtubule network in MCF-7 cells; format: cell-based, human; conditions: paclitaxel 1-20 μM, AECHL-1 2-40 μM, 24 h, confocal microscopy
Method: Immunocytochemistry was performed as described previously. […] Cells were incubated with primary anti-p53 antibodies (1:100; Abcam) and anti-α-tubulin antibodies (1:10000; Sigma chemical Co.) for 1 hour at room temperature. After washing with PBS, cells were incubated with CY2-conjugated secondary antibodies (1:200; Chemicon, Germany) and Alexa-conjugated secondary antibodies (1:10000; Sigma, St. Louis, Mo.) for 45 minutes and nuclear staining was done with DAPI. Images were captured under confocal microscope.
The tumor suppressor p53 plays a critical role in preventing human cancer formation. It translocates into the nucleus and works as a transcription factor by upregulating cell cycle regulatory proteins and induces cell cycle arrest and/or programmed cell death (apoptosis) (11). […] After 24 h of incubation, the p53 translocation in the nucleus (green fluorescence) and microtubule network (red fluorescence) was visualized by confocal microscopy.

B16F10 melanoma cells = experiment: In vivo allograft tumor model; design: species or system C57B1/6 mice; conditions: for tumor weight to body weight ratio: after 12 days treatment, vs control (p<0.01); for tumor size reduced by / tumor volume on day 24: B16F10 allograft; for tumor size reduced by: day 18; for histological examination of tumor tissue: C57 mice
Method: The data reported for tumor volumes are expressed as mean±SEM. Statistical differences were determined by ANOVA and post test applied was Tukey-Kramer multiple comparison Test. For Tumor to body weight ratio post test applied was Dunnett multiple comparisons test.

CDK4 = experiment: Western blot of tumor homogenates of C57B1/6 mice; format: in vivo, mouse; conditions: tumor of C57 mice
Method: (§3) Prior to immunoblot analysis, tumor segments stored at −80° C. were thawed, washed, minced and homogenized in lysis buffer (120 mM NaCl, 1.0% Triton X 100, 20 mM Tris-HCl, pH 7.5, 10% glycerol, 2 mM EDTA, Protease inhibitor cocktail, Roche) using a Polytron homogenization device. Lysates were incubated at 4° C. for 30 min and centrifuged at 14000 r.p.m. in an Eppendorf micro centrifuge for 15 min. Proteins were isolated in solublised form. Protein concentrations were measured by Bradford assay (Bio-Rad protein assay kit) and stored at −80° C. For immunobloting, 60 μg of total protein from the tumor lysates were used Proteins were resolved in a 10% SDS-polyacrylamide gel, transferred to the immobilon-P […] membrane and blocked with 5% (wt/v) non fat dry milk powder (Sigma) in TBST buffer (10 mM Tris pH 7.6, 150 mM NaCl and 0.1% Tween-20) for three hours at room temperature and then incubated with primary antibodies p53, pp53, p21, Cyclin D1, CDK4 and c-Myc in TBST for 3 h and with actin for 1 hour at room temperature. The membrane was incubated further with the secondary antibody HRP-conjugated (BD Bioscience) at 1:10000 dilution for 1 h at room temperature. Following each antibody incubation, the membrane was washed thoroughly with TBST buffer 3 times. The protein bands were visualized using the enhanced chemiluminescence substrate reaction (Pierce) according to the manufacturer's instructions using X-OMAT AR5 film (Kodak)

Cyclin D1 = experiment: Western blot of tumor homogenates of C57B1/6 mice; format: in vivo, mouse; conditions: tumor of C57 mice
Method: as §3

c-Myc = experiment: Western blot of tumor homogenates of C57B1/6 mice; format: in vivo, mouse; conditions: tumor of C57 mice
Method: as §3

p21 = experiment: Western blot of tumor homogenates of C57B1/6 mice; format: in vivo, mouse; conditions: tumor of C57 mice
Method: as §3

p53 = experiment: Western blot of tumor homogenates of C57B1/6 mice; format: in vivo, mouse; conditions: tumor of C57 mice, compared with control
Method: as §3

pp53 = experiment: Western blot of tumor homogenates of C57B1/6 mice; format: in vivo, mouse; conditions: tumor of C57 mice
Method: as §3

C=C1C(OCC)C2(O)OCC34C(=C(C)c5c(C)cc(O)c(OCC)c5C23)OC(=O)C(OC(=O)C(C)(O)CC)C14 (centres unmarked) [AECHL-1]
percent viability and proliferation of the tumor cells [1]: significantly inhibited | percent viability and proliferation of the tumor cells ([2]; MCF-7, 12, 24 and 48 h, concentration and time dependent): significantly inhibited | inhibitory effect compared with reference drugs ([2]; MCF-7 cells, 10 μM, 48 h): stronger than that of Paclitaxel, or Cisplatin | percent viability and proliferation of the tumor cells [3]: significantly inhibited | percent viability and proliferation of the tumor cells [4]: significantly inhibited | effect on microtubule network [5]: thickening and increased density of microtubules | tumor weight to body weight ratio (B16F10 melanoma cells; 50 μg): significant reduction | tumor weight to body weight ratio (B16F10 melanoma cells; 100 μg): significant reduction | tumor size reduced by (B16F10 melanoma cells; 50 μg intra-tumor for 12 days): 44.303±5.20% | tumor volume on day 24 (B16F10 melanoma cells; 50 μg): increased | tumor size reduced by (B16F10 melanoma cells; 100 μg intra-tumor for 12 days): 51.014±1.27% | tumor volume on day 24 (B16F10 melanoma cells; 100 μg): increased | histological examination of tumor tissue (B16F10 melanoma cells; 50 μg): Tumor cell density was found to be decreased with occurrence of picnotic/necrotic cells in the center of the tumor | histological examination of tumor tissue (B16F10 melanoma cells; 100 μg): increase in necrotic nuclei through out the tumor area, with disappearance of neovasulization and hemorrhagic areas | expression of CDK4 (CDK4): reduced the expression | expression of cyclin D1 (Cyclin D1): reduced the expression | expression of c-Myc (c-Myc): downragulation | expression of p21 (p21; 50 μg): decrease | expression of p21 (p21; 100 μg): increased | p53 protein expression (p53; 50 μg): increasing expression | p53 protein expression (p53; 100 μg): increasing expression | phosphorylation of p53 (pp53) (pp53; 50 μg): increasing | phosphorylation of p53 (pp53) (pp53; 100 μg): decreased
